{"source": "patent US20230128322A1", "about": "“SYK KINASE INHIBITORS AS TREATMENT FOR MALARIA” (Purdue Research Foundation, priority 2012, published 2023)", "key": {"[1]": {"tested_on": "P falciparum strain Palo Alto", "assay": "parasitemia / re-infection in P. falciparum-infected RBC cultures", "type": "cell-based, Plasmodium falciparum", "details": "for parasitemia level as % of the initial level: added 24 hours after start of culture, 72 hours after treatment; for effect on level of parasitemia during second cycle (re-infection): all concentrations examined (0.1-10 μM); for effect on level of parasitemia during first parasite cycle: first 48 hours, inhibitor added 24 hours after start", "method": "Inhibition of Syk in RBCs. Infected and non-infected RBCs were treated with Syk kinase inhibitor 11 (FIG. 2) at different concentrations and at different times after the start of the cultures. Cultivation of P. falciparum-infected RBCs. Freshly drawn blood (Rh+) from healthy adults of both sexes was used following informed consent in all studies. […] To assess total parasitemia and the relative numbers of ring and trophozoite stage cells, slides were prepared from cultures at the indicated times and stained with Diff-Quik reagent prior to analysis. 1000 cells were then scored by microscopic analysis of the cell staining patterns. To evaluate the potential of Syk kinase inhibitors as a therapy for treating malaria, the effect of Syk kinase inhibitors on preventing re-infection of additional erythrocytes was evaluated. Based on the hypothesis that destabilization of the RBCM is beneficial to the parasite during egress, blocking RBCM destabilization by inhibiting Syk-mediated tyrosine phosphorylation of band 3 may result in a reduction in the spread of infected cells. To test this, erythrocyte cultures were infected with P. falciparum and then treated 24 hours later with the Syk kinase inhibitor (0, 0.1, 1, and 10 uM concentrations) (FIG. 2). In this set of experiments Syk kinase inhibitors have been added 24 hours after the start of the parasite cultures. Data are means of 2 or 4 experiments with standard deviations. The data presented represents the mean of two to four experiments. The level of parasitemia was then calculated at 24, 48, 72 and 96 hours after addition of the Syk kinase inhibitor. The efficiency of the Syk kinase inhibitor at different stages of the parasite development cycle was examined. […] Growth inhibition was calculated as a % re-invasion rate relative to untreated cultures. […] However, when infected cultures are treated at 24 hours after the initial infection, nearly 100% of parasite re-infection is inhibited. This time point was confirmed in a flow cytometric analysis where the number of merozoites released from isolated schizonts, were measured with or without Syk kinase inhibitor treatment. […] This is consistent with our proposed mechanism of the Syk kinase inhibitor blocking the necessary destabilization of the erythrocyte cell membrane required for egress. Inhibition of Syk in RBCs. Infected and non-infected RBCs were treated with Syk kinase inhibitor IV (FIG. 6) at different concentrations and at different times after the start of the cultures. Cultivation of P. falciparum-infected RBCs. Freshly drawn blood (Rh+) from healthy adults of both sexes was used following informed consent in all studies. […] To assess total parasitemia and the relative numbers of ring and trophozoite stage cells, slides were prepared from cultures at the indicated times and stained with Diff-Quik reagent prior to analysis, 1000 cells were then scored by microscopic analysis of the cell staining patterns. To test this, erythrocyte cultures were infected with P. falciparum and then treated 24 hours later with the Syk kinase inhibitor (0, 0.1, and 10 uM concentrations) (FIG. 6). The data presented represents the mean of two to four experiments. The level of parasitemia was then calculated at 24, 48, 72 and 96 hours after addition of the Syk kinase inhibitor."}, "[2]": {"details": "cited from earlier work"}, "[3]": {"details": "cited from earlier work", "remark": "listed apart in the source"}, "[4]": {"tested_on": "P. falciparum-infected RBCs", "assay": "vesiculation (microparticle release) of infected RBCs", "type": "cell-based, human", "details": "10 μM, added 12 hours after infection", "method": "Micro-vesicle Quantification. Infected and non-infected RBCs were washed 3× in RPMI 1640-HEPES medium and then resuspended at 10% hematocrit in the same medium containing a protease inhibitor cocktail (Sigma-Aldrich). […] Cells were then centrifuged at 2000×g to pellet the RBCs followed by a centrifugation step at 20,000×g for 10 minutes to pellet the RBC membranes. RBC vesicles present in the supernatant were labeled with anti-glycophorin A antibodies or with eosine-maleimide for labeling band 3, and quantified using a FACSCalibur cytometer (BD Biosciences) and the Cell Quest analysis software (BD Biosciences). Vesicles were selected using forward and side light scatter (FSC and SSC signals set to logarithmic amplification). A total of 40,000 events were analyzed. The amount of MPs released by infected RBCs was also measured. […] MPs were isolated from the supernatant by differential centrifugation (as in the INODs paper) and their amount was estimated measuring their band 3 content ([…] blots). Data are mean of 2 experiments with SD (in the second experiment we could measure only the ast times). […] To measure vesiculation, microparticles were isolated from the culture supernatants and quantified based on their band 3 content (determined by Western blotting) [Pantaleo, Free Radic Biol Med 2012, 52: 527-536]."}, "band 3 [5]": {"tested_on": "band 3", "assay": "band 3 tyrosine phosphorylation in parasite cultures (Western blot)", "type": "cell-based, human", "details": "10 μM added at 12 hours; at 48 hours post infection", "method": "Immunoblot Analysis. […] The nitrocellulose membranes were then probed using either fluorescein-5'-maleimide (0.25 mg/ml) (Pierce) or anti-phosphotyrosine antibody (Santa Cruz, Calif.) and anti-Syk (Santa Cruz, Calif.) antibodies and with anti-band 3 (Sigma Aldrich). The blots were then analyzed using an 800 nm laser scanner (Odyssey, Licor, USA). […] In this set of experiments, Syk kinase inhibitors were added 12 hours after the start of the parasite cultures. The content of band 3 was measured by western blotting. The percent of band 3 phosphorylation was also measured. […] Band 3 phosphorylation levels have been normalized for the band 3 content ([…] blot). The expectation is that band 3 tyrosine phosphorylation would also be diminished in the Syk kinase inhibitor treated cultures. This is indeed the case. The % of band tyrosine phosphorylation was measured via Western blotting with an anti-phosphotyrosine antibody. […] The cultures were then normalized to the vandate induced level of phosphorylation. […] This is consistent with the hypothesis that just prior to egress the parasite would phosphorylate band 3, disrupt its interaction with ankyrin and result in a destabilized membrane that is more susceptible to breech as required during egress."}, "malaria infected RBCs": {"tested_on": "malaria infected RBCs", "assay": "ex vivo parasitemia in blood from malaria infected Vietnamese patients (PCR)", "type": "cell-based, human", "details": "48 hours of incubation, various concentrations"}, "[6]": {"tested_on": "artemisinin resistant parasites in malaria infected blood", "assay": "ex vivo parasite growth in artemisinin resistant blood of patient 4 (PCR)", "type": "cell-based, human", "method": "A blood sample was acquired from patient 4 prior to treatment with artemisinin and 13 day after treatment with artemisinin. […] These parasites are considered artemisinin resistant since there is a persistent parasitemia in the patient, even after artemisinin therapy.\nUpon arrival of each sample, malaria infected RBCs were separated from plasma and leukocytes by three washes in wash medium (RPMI 1640 medium containing 2 mM glutamine, 24 mM NaHCO, 25 mM Hepes, 20 mM glucose, and 32 mg/m gentamicin, pH 6.80).\nSmears of infected erythrocytes were obtained to assess initial parasitemia. Slides were fixed in 100% methanol and stained with 1/10 dilution of Giemsa solution, incubated for 10 min at room temperature, washed with water, dried, and observed under oil immersion lens (100×) for microscopic analysis. An aliquot was also saved for PCR analysis.\nMalaria infected erythrocytes were re-suspended at 2% hematocrit in growth medium consisting of RPMI 1640 supplemented with 2 mM glutamine, 24 mM NaHCO, 25 mM Hepes, 20 mM glucose, and […] gentamicin, pH 6.80 and 10% heat inactivated human serum. Infected blood was aliquoted into 96 well plates pretreated with Syk kinase inhibitor H and incubated at 37° C. in CO2 incubation bags. After 48 hours of incubation, the cultures were processed and analyzed by PCR."}, "band 3 [7]": {"tested_on": "band 3", "assay": "orthovanadate-induced band 3 tyrosine phosphorylation in erythrocytes", "type": "cell-based, human", "details": "10 uM, 1 hour, then 2 mM orthovanadate"}, "parasite in RBCs": {"tested_on": "parasite in RBCs", "assay": "microscopy of Giemsa stained blood smears of treated infected RBCs", "type": "cell-based", "method": "FIGS. 9A-9E are microscopy photographs of standard blood smears. Smears were prepared on glass slides, fixed with 100% methanol, and stained in 10% Giemsa modified stain diluted in PBS for 10 minutes at room temperature.\nFIGS. 10A-D are microscopy photographs of standard blood smears. Smears were prepared on glass slides, fixed with 100% methanol, and stained in 10% Giemsa modified stain diluted in PBS for 10 minutes at room temperature.\nFIGS. 11A-C are microscopy photographs of standard blood smears. Smears were prepared on glass slides, fixed with 100% methanol, and stained in 10% Giemsa modified stain diluted in PBS for 10 minutes at room temperature."}, "[8]": {"tested_on": "P. falciparum Dd2-infected erythrocytes", "assay": "parasitemia of synchronous P. falciparum Dd2 cultures"}}, "note": "“Also recorded” adds a separate entry of the source. Counter-ions that a name gives are not always drawn."}
{"compound": "COc1ccc(-c2cc3nccn3c(NC3N=CC=CC3C(N)=O)n2)cc1OC", "note": "(centres unmarked) [Syk kinase inhibitor IV]", "values": [{"measurement": "parasitemia level as % of the initial level", "setting": "[1]; 10 μM", "value": "~80", "unit": "%"}, {"measurement": "effect on level of parasitemia during second cycle (re-infection)", "setting": "[1]", "value": "significantly dropped the level of parasitemia"}, {"measurement": "effect on level of parasitemia during first parasite cycle", "setting": "[1]", "value": "did not cause changes of parasitemia"}]}
{"compound": "Cc1ccc(NC(=O)c2ccc(CN3CCNCC3)cc2)cc1Nc1nccc(-c2cccnc2)n1", "note": "[N-desmethyl derivative]", "values": [{"measurement": "plasma AUC of metabolite as % of the AUC for imatinib", "setting": "[2]; humans", "value": "about 15%"}, {"measurement": "elimination half-life", "setting": "[2]; oral administration in healthy volunteers", "value": "~40", "unit": "h"}]}
{"compound": "COc1ccc2c(c1)c(C=C1C(=O)Nc3ccc(S(N)(=O)=O)cc31)cn2CCCO", "note": "[Compd 18]", "values": [{"measurement": "Solubility", "setting": "[3]", "value": "<0.1", "unit": "mg·L"}]}
{"compound": "NCCNc1ncc(C(N)=O)c(Nc2cccc(C(F)(F)F)c2)n1", "note": "[Syk kinase inhibitor II, 2-(2-Aminoethylamino)-4-(3-trifluoromethylanilino)-pyrimidine-5-carboxamide]", "values": [{"measurement": "parasitemia level as % of the initial level", "setting": "[1]; 1 μM", "value": "~80", "unit": "%"}, {"measurement": "inhibition of parasite re-infection", "setting": "[1]; 1 μM, added at 40 and 48 hours post initial infection", "value": "little impact"}, {"measurement": "parasitemia level as % of the initial level", "setting": "[1]; 10 μM", "value": "~80", "unit": "%"}, {"measurement": "inhibition at 1 µM", "setting": "[1]; Plasmodium falciparum, 1 μM, added 24 hours after the initial infection, read-out: inhibition of parasite re-infection", "value": "~100", "unit": "%"}, {"measurement": "effect on level of parasitemia during second cycle (re-infection)", "setting": "[1]", "value": "significantly dropped the level of parasitemia"}, {"measurement": "effect on level of parasitemia during first parasite cycle", "setting": "[1]", "value": "no effect"}, {"measurement": "effect when culture is treated prior to infection with normal merozoites", "setting": "[1]; pre-treatment of new culture", "value": "no effect in blocking the parasitemia"}, {"measurement": "inhibition of vesiculation vs untreated parasite cultures", "setting": "[4]", "value": "~50", "unit": "%"}, {"measurement": "maximum level of tyrosine phosphorylated band 3 (relative to 2 mM vanadate)", "setting": "band 3 [5]", "value": "~35", "unit": "%"}, {"measurement": "parasitemia of infected patient blood", "setting": "malaria infected RBCs", "value": "completely eliminating parasitemia"}, {"measurement": "IC50", "setting": "[6]; Homo sapiens, sample pre-treatment, parasitemia 0.1%, read-out: IC50 Syk kinase inhibitor II", "value": "< 600", "unit": "nM"}, {"measurement": "elimination of parasites in malaria infected blood", "setting": "[6]; pre- and post-artemisinin treatment", "value": "completely eliminate parasites"}]}
{"compound": "Cc1ccc(NC(=O)c2ccc(CN3CCN(C)CC3)cc2)cc1Nc1nccc(-c2cccnc2)n1", "note": "[Imatinib mesylate, 4-[(4-Methyl-1-piperazinyl)methyl]-N-[4-methyl-3-[[4-(3-pyridinyl)-2-pyrimidinyl]amino]-phenyl]benzamide methanesulfonate]", "values": [{"measurement": "band 3 tyrosine phosphorylation", "setting": "band 3 [7]", "value": "completely inhibited"}, {"measurement": "parasite development in blood smears", "setting": "parasite in RBCs; 8 μM, up to 121 hour", "value": "able to delay the lifecycle of the parasite"}, {"measurement": "parasite morphology in blood smears", "setting": "parasite in RBCs; 10 μM, listed as Gleevec, methanesulfonate", "value": "immature trophs from the first cycle that have not matured; also recorded: merozoites stuck or trapped inside the RBCs that cannot egress; also recorded: pyknotic parasites, or dead parasites in condensed form"}, {"measurement": "parasitemia of infected patient blood", "setting": "malaria infected RBCs", "value": "effective at reducing the parasitemia"}, {"measurement": "time post-dose at which Cmax is achieved", "setting": "[2]; oral administration", "value": "2 to 4", "unit": "h"}, {"measurement": "parasitemia during the first cycle", "setting": "[8]; first 44 hours, added 20 hours after start", "value": "did not cause significant changes in parasitemia"}, {"measurement": "re-infection at the second cycle", "setting": "[8]; higher concentrations", "value": "fail to reinfect healthy erythrocytes"}, {"measurement": "viability after 4 cycles of growth", "setting": "[8]; higher concentrations", "value": "remain nonviable"}, {"measurement": "effect on parasite cycles", "setting": "[8]; starting at 8 μM", "value": "able to delay the cycles of the parasite"}]}
